Measured values: patent US20190224189A1 (priority 2016, published 2019)

Tests used:
EGFR WT = EGFR WT (Homo sapiens, UniProt P00533); conditions: wild type EGFR and exon 20 insertion mutants, summary of Table 1
[1] = tested on: non-small cell lung cancer with insertion mutation in exon 20; conditions: cited from earlier work
[2] = tested on: stage IV lung adenocarcinoma carrying Exon 20 ins; conditions: cited from earlier work

Chain of EGFR WT (P00533 668-1210 limits assumed): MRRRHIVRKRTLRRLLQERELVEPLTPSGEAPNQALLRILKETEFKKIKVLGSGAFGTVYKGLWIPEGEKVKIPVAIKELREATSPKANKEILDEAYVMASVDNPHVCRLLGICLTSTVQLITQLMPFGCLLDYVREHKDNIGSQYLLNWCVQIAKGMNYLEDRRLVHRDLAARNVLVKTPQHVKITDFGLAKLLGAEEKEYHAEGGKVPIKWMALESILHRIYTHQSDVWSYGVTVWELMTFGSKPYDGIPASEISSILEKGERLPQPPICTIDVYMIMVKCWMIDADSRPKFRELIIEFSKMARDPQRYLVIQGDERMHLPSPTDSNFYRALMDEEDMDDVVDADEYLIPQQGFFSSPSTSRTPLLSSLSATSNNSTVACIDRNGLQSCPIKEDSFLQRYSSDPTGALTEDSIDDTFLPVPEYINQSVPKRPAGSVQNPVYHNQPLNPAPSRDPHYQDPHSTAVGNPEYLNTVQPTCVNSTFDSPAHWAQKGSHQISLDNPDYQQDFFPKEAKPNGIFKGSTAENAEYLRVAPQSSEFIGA

CCOc1cc2ncc(C#N)c(Nc3ccc(OCc4ccccn4)c(Cl)c3)c2cc1NC(=O)/C=C/[C@H]1CCCN1C [Compound A, (E)-N-[4-[[3-chloro-4-(2-pyridylmethoxy)phenyl]amino]-3-cyano-7-ethoxy-6-quinolyl]-3-[(2R)-1-methylpyrrolidin-2-yl]prop-2-enamide]
inhibitory effect on the enzymatic activity of recombinant human wild type EGFR and the mutated type with inserted mutation in exon 20 (in words) (EGFR WT): strong inhibitory effect

CN(C)C/C=C/C(=O)Nc1cc2c(Nc3ccc(F)c(Cl)c3)ncnc2cc1O[C@H]1CCOC1 [SHR141219 (BIBW-2992)]
ORR evaluated through IRC ([1]; 23 patients with Exon 20 ins, 95% CI: 1.1%-28%): 8.7%
median PFS ([1]; patients with Exon 20 ins, 95% CI: 1.8-4.2 months): 2.7 months
median OS ([1]; patients with Exon 20 ins, 95% CI: 4.1-14.2 months): 9.2 months

C#Cc1cccc(Nc2ncnc3cc(OCCOC)c(OCCOC)cc23)c1 [erlotinib]
partial remission (PR) rate ([2]; 3 of the 11 patients with Exon 20 ins): 27%
median TTP ([2]; patients with Exon 20 ins who received erlotinib): 3 months
